Like-named read-outs stand apart in the source and are kept apart here.
Assays:
RKO = assay: Cytotoxicity (MTT) under normoxia, RKO; assay type: cell-based; conditions: Homo sapiens, read-out: IC50 RKO
Description: (§1) The cytotoxicity of the compounds 5a–c and their parent alkaloids was evaluated by the 3-[4,5-dimethylthiazole-2-yl]-2,5-diphenyltetrazolium bromide (MTT) assay against 5 cancerous and 2 non-cancerous cell lines (Table 4).
(§2) The eight cell lines HEK293 (Human embryonic kidney 293), CHO-K1 (Chinese hamster ovary K1), MCF-7 cells (Human breast adenocarcinoma), HCT116 (human colorectal carcinoma), RKO (Human rectal carcinoma), SW480 (human colorectal carcinoma), H460 (Human lung cancer), and MRC5 (Normal human foetal lung fibroblast), were obtained from the ATCC. The cell lines were routinely grown in alpha minimum essential medium (α-MEM) containing 5% foetal calf serum (FCS). The appropriate number of cells (HCT116 = 400 cells/well, H460 cells = 600 cells/well) were seeded into 96-well plates under normoxic or hypoxic conditions. Cells were plated in 100 µL α-MEM containing 10% FCS, 10mM D-Glucose and 0.2mM 2′-deoxycytidine. After incubation for 2 h, the compounds were added at the appropriate concentration and incubated for further 4 h. The cells were then washed three times with drug-free α-MEM (containing 5% FCS and pen/strep). The plates were then incubated for 5 days under normoxic conditions. The cells were stained with sulphorhodamine B to measure total cells. The IC50 was determined by interpolation as the compound concentration reducing staining to 50% of controls on the same plate.

LogD determination = assay type: physicochemical; conditions: mean ± SE
Description: (§3) Water solubility, logD, and PAMPA-BBB were evaluated using the protocols we previously described.

H460 = assay: Cytotoxicity under normoxia and hypoxia (anaerobic chamber, sulphorhodamine B), H460; assay type: cell-based, human; conditions: for IC50: Homo sapiens, NCI-H460, 4 h exposure, 5 days growth
Description: (§4) We also checked if the designed prodrugs were able to liberate the active alkaloids in hypoxic tumors by testing them under hypoxic conditions using an anaerobic chamber. The three prodrugs 5a–c and their parent alkaloids as well as the reference compounds PR-104A, the parent alcohol form of the phosphate pre-prodrug PR-104, and evofosfamide were tested using the HCT116 and H460 cell lines under both normoxic and hypoxic conditions (Table 5). The prodrugs were much less cytotoxic than the parent drugs, in agreement with our observations using the other cell lines described above (Figure 6).
(§5) The extent to which a prodrug is deactivated relative to its parent drug under normoxic conditions is defined as the Deactivation Ratio (DR). The DR can be simply calculated as DR = IC50 (prodrug)/IC50 (parent drug).
(§6) The efficacy of prodrug activation under hypoxic conditions can be expressed by the Hypoxia Cytotoxicity Ratio (HCR), which can be calculated for a given prodrug as: HCR = normoxic IC50/hypoxic IC50.
as §2

MRC5 = assay: Cytotoxicity (MTT) under normoxia, MRC5; assay type: cell-based; conditions: Homo sapiens, MRC5, read-out: IC50 MRC5
Description: as §1, §2

[1] = BBB-Parallel Artificial Membrane Permeability Assay (BBB-PAMPA); assay type: in vitro ADME; conditions: mean ± SE
Description: The physicochemical properties of the new compounds were evaluated (Table 1). […] Consequently, these derivatives lost their BBB penetrability, as predicted by the BBB-Parallel Artificial Membrane Permeability Assay (BBB-PAMPA), whereas their parent alkaloids had free passage through the BBB.
as §3

in vitro = conditions: male, Balb/c, mouse, pH 7.4
Description: Mouse hepatic microsomes were isolated from pooled, perfused livers of Balb/c male mice according to the standard protocol. […] Microsomal incubations were carried out in 96-well plates in 5 aliquots of 40 μL each. […] Control incubations were performed by replacing the NADPH-cofactor system with PBS. The additional control incubations in PBS (with 3.3 mM MgCl2) without added microsomes were carried out in this study. […] The incubations were performed in duplicates. Five time points over 40 min had been analyzed. The reactions were stopped by adding 12 volumes of 90% acetonitrile-water to incubation aliquots, followed by protein sedimentation by centrifuging at 5500 rpm for 3 min. The supernatants were analyzed using LC-MS as mentioned above.

MCF7 = assay: Cytotoxicity (MTT) under normoxia, MCF7; assay type: cell-based; conditions: Homo sapiens, MCF7, read-out: IC50 MCF7
Description: as §1, §2

[2] = Solubility in PBS (pH 7.4); assay type: physicochemical; conditions: aqueous buffer, mean ± SE
Description: as §3

[3] = Plasma protein binding (PPB); assay type: in vitro ADME; conditions: mean ± SE, read-out: PPB (% of Bound Compound) (converted)
Description: The physicochemical properties of the new compounds were evaluated (Table 1).

[4] = Human plasma stability test; assay type: in vitro ADME; conditions: 37 °C, up to 24 h, read-out: t1/2 (Human Plasma) (converted)
Description: (§7) Incubations were carried out in 6 aliquots of 70 μL each in duplicates. […] The reactions were stopped by adding 350 μL of acetonitrile with subsequent plasma proteins sedimentation by centrifuging at 5500 rpm for 5 min. Supernatants were analyzed by LC-MS using Shimadzu VP HPLC system including vacuum degasser, gradient pumps, reverse phase column, column oven and autosampler. The HPLC system was coupled with tandem mass spectrometer API 3000 (PE Sciex, Foster City, CA, USA). Both the positive and negative ion modes of the TurboIonSpray ion source were used. The acquisition and analysis of the data were performed using Analyst 1.5.2 software (PE Sciex, API 3000 mass spectrometer, Foster City, CA, USA). The percentage of the test compounds remaining after incubation in plasma and their half-lives (T1/2) were calculated.

[5] = Mouse plasma stability test; assay type: in vitro ADME; conditions: 37 °C, up to 24 h, read-out: t1/2 (Mouse Plasma) (converted)
Description: as §7

HCT116 [6] = assay: Cytotoxicity under normoxia and hypoxia (anaerobic chamber, sulphorhodamine B), HCT116; assay type: cell-based, human; conditions: for IC50: Homo sapiens, HCT-116, 4 h exposure, 5 days growth
Description: as §4, §5, §6, §2

SW480 = assay: Cytotoxicity (MTT) under normoxia, SW480; assay type: cell-based; conditions: Homo sapiens, SW480, read-out: IC50 SW480
Description: as §1, §2

HEK293 = assay: Cytotoxicity (MTT) under normoxia, HEK293; assay type: cell-based; conditions: Homo sapiens, HEK293, read-out: IC50 HEK293
Description: as §1, §2

CHO-K1 = assay: Cytotoxicity (MTT) under normoxia, CHO-K1; assay type: cell-based, Chinese hamster; conditions: Cricetulus griseus, CHO-K1, read-out: IC50 CHO-K1
Description: as §1, §2

HCT116 [7] = assay: Cytotoxicity (MTT) under normoxia, HCT116; assay type: cell-based; conditions: Homo sapiens, HCT-116, read-out: IC50 HCT116
Description: as §1, §2

COc1cc2c3c(c4cc(OC)c(OC)cc4c2cc1OC)C[N+]1(Cc2c([N+](=O)[O-])ncn2C)CCC[C@H]1C3.[Br-] (stereo partly drawn) [Compound 5b, (13aS)-2,3,6,7-tetramethoxy-10-((1-methyl-4-nitro-1H-imidazol-5-yl)methyl)-10,11,12,13,13a,14-hexahydro-9H-dibenzo[f,h]pyrrolo[1,2-b]isoquinolin-10-ium bromide]
IC50 (RKO): 4.06 ± 0.181 µM
logD (LogD determination): 0.38 ± 0.04
HCR (Hypoxia Cytotoxicity Ratio) (H460): 24
DR (Deactivation Ratio) (H460; H460, normoxia, DR = IC50 (prodrug)/IC50 (parent drug)): 719
IC50 (H460; H460, hypoxia, read-out: IC50 (Hypoxia)): 3.22 ± 1.07 µM
IC50 (H460; H460, normoxia, read-out: IC50 (Normoxia)): 77.6 µM
IC50 (MRC5): 3.31 ± 0.163 µM
Permeability (Papp) [1]: <−7 Log [10^−6 cm/s]
Kel (elimination rate constant) (in vitro; 2 μM): 0.002 ± 0 min⁻¹
metabolized into the parent drug (in vitro; microsomes, 2 μM): less than 1%
half-life at 2 μM (in vitro; microsomes): 6.733 ± 0.0533 h
IC50 (MCF7): 1.5 ± 0.128 µM
solubility [2]: 162 ± 3 µM
fraction unbound [3]: 0.411
half-life at 1 μM [4]: 63.3 ± 0.1 h
melting point: 165 to 167 °C
half-life at 1 μM [5]: 73 ± 1.7 h
HCR (Hypoxia Cytotoxicity Ratio) (HCT116 [6]): 11.3
DR (Deactivation Ratio) (HCT116 [6]; HCT116, normoxia, DR = IC50 (prodrug)/IC50 (parent drug)): 689
IC50 (HCT116 [6]; HCT116, hypoxia, read-out: IC50 (Hypoxia)): 1.46 ± 0.411 µM
IC50 (HCT116 [6]; HCT116, normoxia, read-out: IC50 (Normoxia)): 4.49 ± 0.698 µM
IC50 (SW480): 7.25 ± 0.49 µM
IC50 (HEK293): 0.95 ± 0.174 µM
IC50 (CHO-K1): 3.49 ± 0.843 µM
IC50 (HCT116 [7]): 3.3 ± 1.56 µM

— paper PMC8199124, “Design, Synthesis and In-Vitro Biological Evaluation of Antofine and Tylophorine Prodrugs as Hypoxia-Targeted Anticancer Agents” (Molecules, 2021)
